{
  "source": "patent US20210015857A1",
  "about": "“METHOD FOR IMMUNOTHERAPY DRUG TREATMENT” (The University of Western Australia, priority 2018, published 2021)",
  "key": {"[1]": {"test_system": "AE17 mesothelioma tumours", "test": "Flow cytometry of AE17 tumours after intratumoural IFN alpha or poly(I:C) pretreatment", "type": "in vivo, mouse", "conditions": "intratumoural 3 days, vs PBS (FIG. 17)", "procedure": "For flow cytometry, tumours were harvested and immediately submerged in cold PBS, cut into 1-2 mm pieces with a scalpel blade and dissociated using the GentleMACS system. Fc block (anti-CD16/CD32, BD) was used for 10 minutes on ice. UV Zombie live/dead (Biolegend) was used to discriminate live cells. Cells were permeabilized and fixed using FoxP3 fix/Perm buffer kit (Biolegend) before addition of antibodies for 20 minutes at RT. See Supplementary Table 2 for antibody details. Cells were kept in stabilizing fixative until acquisition. Data were acquired on a BD Fortessa flow cytometer and analyzed using FlowJo software (TreeStar).\n(§1) For detection of phospho-STAT1, dissociated tumours were stained with surface antibodies, fixed with 1.5% formaldehyde for 10 minutes, then permeabilized with ice-cold methanol at 4° C. for 10 minutes. Cells were stained with a rabbit-anti-pSTAT1 antibody (Tyr701) -PE (Cell Signaling Technology) for 30 minutes at room temperature (RT).\nTo verify the potential of recombinant IFN alpha to induce the response-associated phenotype (i.e., to sensitise the tumour cellular microenvironment to ICB) similarly to Poly-I:C, AE17 mesothelioma tumour-bearing mice were pretreated with Poly-I:C or recombinant IFN alpha (: R&D systems) intratumourally for 3 days (or PBS control). […]"}, "[2]": {"test_system": "AE17 mesothelioma tumours", "test": "Poly(I:C) pretreatment followed by ICB with or without IFNAR blocking antibody, tumour growth", "type": "in vivo, mouse", "procedure": "To test whether the mechanism underlying the priming effect of Poly-I:C was mediated through IFN alpha/beta induction (as discussed in Example 6), priming experiments were repeated while adding blocking antibodies against the IFN alpha/beta receptor (IFNAR). C57BL/6 AE17 mesothelioma tumour-bearing mice were treated with CPB on day 22 after tumour inoculation, with or without pretreatment of 3 days of 50 μg s.c. Poly-I:C in the tumour area (day 17-19), with or without blocking antibodies against IFNAR (e.g., […] monoclonal antibody MAR1-5A3 as sourced from BiXcell) (0.5 mg i.p., 3 times/week) starting at the same time."}, "[3]": {"test_system": "Renca kidney cancer tumours", "test": "Oral retinoids combined with ICB in Renca kidney cancer-bearing mice", "type": "in vivo, mouse", "conditions": "retinoid oral 6 days from day 9, ICB days 12, 14, 16 (FIG. 24)", "procedure": "The following retinoids and dosages were employed: Bexarotene (Saphire Bioscience) was dosed at 100 mg/kg; tretinoin and isotretinoin (Sigma-Aldrich) were all dosed at 10 mg/kg."}, "[4]": {"test_system": "melanoma", "conditions": "melanoma cohort n=33; cited from earlier work"}, "[5]": {"test_system": "urothelial cancer", "conditions": "348 urothelial cancer patients; cited from earlier work"}, "[6]": {"test_system": "CT26 colorectal tumours", "test": "pSTAT1 immunohistochemistry of tumours after tretinoin", "type": "in vivo, mouse", "conditions": "tretinoin 10 mg/kg (FIG. 22A, B)", "protocol": "For immunohistochemical staining of STAT1 and pSTAT1, slides of 4-μm thickness were cut from formalin-fixed, parafin-embedded (FFPE) tissue blocks. Subsequently, slides were deparafinized in two changes of xylene for about 5 min followed by rehydration in changes of 100%, 96%, 70% and 40% ethanol and distilled water. Next, for STAT1 staining, antigen retrieval using 10 mM citrate buffer (pH 6.0) was performed for about 10 min at 121° C. using a pressure cooker (the PT-module, Thermo scientific, labvision). For pSTAT1 staining, slides were sub-boiled in 1 M EDTA buffer (pH 8.0) for about 10 minutes in a microwave. Slides were rinsed in TBST and the endogenous peroxidase was blocked using 3% hydrogen peroxidase (Sigma) in distilled water. Sections were washed again in TBST and blocked with goat serum (Vectastain) diluted in PBS as per manufacturer's instructions. Primary antibody, STAT1 or pSTAT1 (Cell Signaling, dilution: 1/800 and 1/200 respectively), was incubated for 60 minutes at room temperature (RT). Sections were washed and secondary antibody, goat anti-Rb IgG-HRP (Santa Cruz), was incubated for about 30 minutes at RT, before washing again. Betazoid DAB chromogen (Biocare Medical) was prepared as per manufacturer's instructions. Chromogen was applied, sections were monitored for the development of a brown colour and the reaction was stopped with H2O. […]"}, "[7]": {"test_system": "Renca kidney cancer", "test": "pSTAT1 flow cytometry of tumours after tretinoin", "type": "in vivo, mouse", "conditions": "tretinoin (FIG. 22C)", "procedure": "as §1\nTo test whether retinoids induce the ICB response-associated phenotype characterised by increased NK cells, inflammatory markers and pSTAT1 positive leukocytes in the tumour, Renca kidney cancer-bearing mice were treated for […] with oral tretinoin (10 mg/kg) starting on day 12 and harvested tumours on day 15 for flow cytometry. In subsequent experiments AB1-HA mesothelioma or CT26 colorectal cancer tumour-bearing mice were treated with tretinoin for 3 days at 10 mg/kg i.p., starting on day 10 and harvested tumours on day 13 for flow cytometry and immunohistochemistry."}, "[8]": {"test_system": "AB1-HA mesothelioma tumours", "test": "Tretinoin combined with ICB in AB1-HA tumour-bearing mice, tumour growth", "type": "in vivo, mouse", "procedure": "[…] The administration of tretinoin to the mice started either 3 days before ICB or at the same time as the ICB (arm 6). Tretinoin was dosed at three dosages; 10 mg/kg (arm 3), 5 mg/kg (arm 4) or 1 mg/kg (arm 5) and was given for 9 days in total."}},
  "data": [
    {"compound": "olyinosinic:polycytidylic acid [poly(I:C)]", "values": [
      {"measurement": "NK infiltration (NK cells of all leukocytes)", "setting": "[1]", "result": "increased NK cell numbers"},
      {"measurement": "STAT1 phosphorylation (pSTAT1 activation)", "setting": "[1]", "result": "pSTAT1 activation"},
      {"measurement": "beneficial effect of pretreatment under IFNAR blockade", "setting": "[2]; cotreatment with IFNAR blocking antibodies (FIG. 16)", "result": "abrogated"},
      {"measurement": "tumour growth", "setting": "[2]; poly(I:C) 3 days before ICB, vs ICB alone (FIG. 16)", "result": "clear delay in tumour growth compared to ICB alone"}
    ]},
    {"compound": "C=C(c1ccc(C(=O)O)cc1)c1cc2c(cc1C)C(C)(C)CCC2(C)C", "note": "[bexarotene]", "values": [
      {"measurement": "percentage of complete regression after combination therapy with ICB, compared to ICB alone", "setting": "[3]", "result": "increased percentage of complete regression"}
    ]},
    {"compound": "nivolumab: anti-PD1 antibody", "values": [
      {"measurement": "non-responsive (PD), number of patients", "setting": "[4]", "result": 23},
      {"measurement": "responsive (CR and PR), number of patients", "setting": "[4]", "result": 10}
    ]},
    {"compound": "atezolizumab: anti-PD-L1 antibody", "values": [
      {"measurement": "best response: complete responders (CR), number of patients", "setting": "[5]", "result": 25},
      {"measurement": "best response: partial responders (PR), number of patients", "setting": "[5]", "result": 43},
      {"measurement": "best response: progressors (PD), number of patients", "setting": "[5]", "result": 167},
      {"measurement": "best response: stable disease (SD), number of patients", "setting": "[5]", "result": 63}
    ]},
    {"compound": "CC1=C(/C=C/C(C)=C/C=C/C(C)=C/C(=O)O)C(C)(C)CCC1", "note": "[tretinoin, all-trans retinoic acid]", "values": [
      {"measurement": "pSTAT1 immune cell infiltrates in tumours (immunohistochemistry)", "setting": "[6]", "result": "increased patches of pSTAT1 immune cell infiltrates"},
      {"measurement": "pSTAT1 positive leukocytes in tumours (flow cytometry)", "setting": "[7]", "result": "increased pSTAT1 positive leukocytes in tumours, particularly in MHC class II positive cells"},
      {"measurement": "efficacy of ICB, retinoid before ICB vs at same time as ICB", "setting": "[8]; AB1-HA (FIG. 21)", "result": "markedly improved the efficacy of ICB compared to when the retinoid was administered at same time as ICB"},
      {"measurement": "efficacy of combination with anti-PD-L1 antibody alone as ICB", "setting": "[8]; AB1-HA, tretinoin 10 mg/kg i.p. 9 days from day 6, anti-PD-L1 days 8, 10, 12 (FIG. 23)", "result": "more efficacious than use of the antibody alone"},
      {"measurement": "response of the tumours to ICB", "setting": "[8]; AB1-HA, tretinoin 10, 5 or 1 mg/kg for 9 days starting 3 days before anti-CTLA4/anti-PD-L1 (FIG. 21)", "result": "improved the response of the tumours to ICB in a dose-dependent manner"}
    ]},
    {"compound": "CC1=C(/C=C/C(C)=C/C=C/C(C)=C\\C(=O)O)C(C)(C)CCC1", "note": "[isotretinoin, 13-cis-retinoic acid]", "values": [
      {"measurement": "percentage of complete regression after combination therapy with ICB, compared to ICB alone", "setting": "[3]", "result": "increased percentage of complete regression"}
    ]}
  ]
}
